Assay results: patent US11737955B2, “Multi-functional micro and nanoparticles for use in root canal therapies” (THE GOVERNING COUNCIL OF THE UNIVERSITY OF TORONTO, priority 2012, dated 2023)

Key:
[1] = test system: E. faecalis biofilm; experiment: Uptake of photosensitizers by E. faecalis biofilm; assay type: cell-based, E. faecalis (ATCC 29212); settings: 15 min incubation, 7 day old biofilm
Method: The uptake of Rose Bengal, methylene blue and chitosan polymer-Rose Bengal nanoparticles was evaluated on biofilm forms of E. faecalis. A seven day old biofilm of E. faecalis (ATCC 29212) was grown in 24 multi-well plates. 1 mL of overnight E. faecalis culture was added into each well of the multi-well plates and incubated at 37° C., 100 rpm. Fresh media was replenished every 48 hours to provide a constant supply of nutrients and to remove dead bacterial cells. On the eighth day, the media was removed from the wells, and the biofilm was carefully washed once with sterile deionized-water. Different concentrations of chitosan polymer-Rose Bengal nanoparticles (0.3, 0.5 & 1 mg/mL) and MB and Rose Bengal (10, 25, 50 & […]) were added to the biofilm and incubated at 37° C. for 15 min, protected from ambient light. Three samples were used for each concentration. Excess photosensitizer solutions were removed leaving behind the bound Rose Bengal, MB and chitosan polymer-Rose Bengal nanoparticles in biofilm and washed once. The biofilm bacteria were treated with 1 mL of 2% SDS for 20 h in order to extract the cell-bound photosensitizers. The biofilms were disrupted and collected in eppendorf tubes. The biofilm bacteria were centrifuged (3000 rpm, 10 min) and the supernatant solution was taken for photosensitizer quantification. Quantification of photosensitizer was done spectrophotometrically (Epoch, Biotek, USA) at the absorption maxima of the Rose Bengal (540 nm). Calibration curves were constructed for each Rose Bengal in 2% SDS. Uptake values were obtained as the total Rose Bengal and MB concentrations (μM) extracted from both the 1 mL of planktonic and biofilm bacteria.

[2] = test system: NIH 3T3 mouse fibroblast cells; experiment: Cytotoxicity, MTT assay with and without photodynamic therapy; assay type: cell-based
Method: To evaluate cytotoxicity approximately 1×10^5 NIH 3T3 mouse fibroblast cells (American Type Culture Collection CCL 1, Rockville, Md.) were seeded into 24 well plates in Dulbecco's Modified Eagle medium (DMEM) supplemented with 10% Bovine Serum and antibiotics and incubated for 48 hrs in 5% CO2 incubator (Thermo Electron Corporation, USA). After incubation, chitosan polymer-Rose Bengal nanoparticles and Rose Bengal dissolved in DMEM were added into the cells and incubated for 15 min in dark. The cells were irradiated with a white light source and a 540 nm fiber (Lumacare Inc) for a total dose of 20 J/cm^2. Rose Bengal and chitosan polymer-Rose Bengal nanoparticles were also tested without irradiation. […]
The supernatant media was removed without disturbing the cell line, and the cell layer was washed with 1 mL of phosphate-buffered saline. Cell survival was determined by the standard 3-(4, 5-dimethylthiazol-2-yl)-2, 5-diphenyltetrazolium bromide (MTT) assay (Sigma Aldrich) that determines the mitochondrial activity. […] The absorbance at 540 nm was measured photometrically by using a UV-visible spectrophotometer (Epoch, Biotek, USA). Percentage survival was calculated based on control sample without any treatment as 100%. All analyses were repeated three times in triplicate, and the statistical significance was analyzed by one-way analysis of variance.

[3] = test system: planktonic E. faecalis; experiment: Membrane integrity of planktonic bacteria (release of cell constituents, OD260); assay type: cell-based, E. faecalis (ATCC 29212); settings: following photodynamic therapy, 5 J/cm^2, 540 nm
Method: Leakage of cytoplasmic contents (DNA) is a characteristic indication of damage to the bacterial cytoplasmic membrane. Absorbance at 260 nm was used to estimate the amount of intracellular contents leaked from bacteria subjected to different photosensitizers and photodynamic therapy. E. faecalis (ATCC 29212) was incubated overnight at 37° C. under agitation in the Brain-Heart Infusion (BHI) medium (Sigma, USA). The culture was centrifuged (4000 rpm, 10 min, 4° C.), supernatants discarded and washed twice in sterile deionized water (DIW). The cells were resuspended in deionized water and adjusted to 10^7 CFU/mL (optical density 0.7) at 600 nm. The cell suspension (1 mL) was then added into eppendorf tubes and centrifuged. The supernatants were discarded and the cell pellets were treated with different photosensitizer solutions and maintained at 37° C. for 15 min, protected from ambient light. The kinetics of release of intracellular contents, treated bacterial cells were filtered (0.2 μm pore size, Pall) and absorbance of the filtrate recorded at 260 nm (OD260). For photodynamic therapy, the photosensitized cells were centrifuged and cell pellets irradiated (5 J/cm^2, 540 nm). The % change in OD260 at 15 min post sensitization and after irradiation with 5 J/cm^2 was calculated with respect to the OD260 of the sample measured at 0 min.

[4] = test system: planktonic E. faecalis; experiment: Antibacterial efficacy on planktonic bacteria (CFU count); assay type: cell-based, E. faecalis (ATCC 29212); settings: 540 nm, 15 min sensitization
Method: E. faecalis (ATCC 29212) was used to test the antibacterial efficacy of Rose Bengal and chitosan polymer-Rose Bengal nanoparticles in both planktonic and biofilm forms. Planktonic cell pellets (10^9 cells/mL) were obtained and the cell pellets treated with 1 mL of Rose Bengal (10 μM) and chitosan polymer-Rose Bengal nanoparticles (0.1 & 0.3 mg/mL), at 37° C. for 15 min, in the manner previously described and protected from ambient light to allow sensitization. Dark toxicity was evaluated after 15 min of sensitization with the two treatment solutions. In the case of photodynamic therapy, the photosensitizer solutions were removed leaving a thin smear at the bottom of the eppendorf tubes. The sensitized planktonic-bacteria were irradiated using a 540 nm fiber with doses of 2 and 5 J/cm^2. After treatment, cell pellets were resuspended in sterile deionized-water (1 mL) and 100 μL of the suspension was plated in freshly poured BHI agar plates after serial dilution. Colonies were counted after 24 hours of incubation at 37° C. and expressed as log colony forming units (CFU) per mL.

[5] = test system: E. faecalis biofilm; experiment: Antibacterial efficacy on 7-days old biofilm (CFU count); assay type: cell-based, E. faecalis (ATCC 29212)
Method: In order to test the antibacterial-efficacy of nanoparticulates on bacterial-biofilm, 7-days old biofilm of E. faecalis (ATCC 29212) was grown in well of multiwell-plates as mentioned above. On the eighth day, the media was removed from the wells, and the biofilm was carefully washed once with sterile deionized-water. The biofilm-bacteria was treated with chitosan polymer-Rose Bengal nanoparticles and Rose Bengal and exposed to photodynamic therapy with different doses. Sensitization was done using 1 mL of Rose Bengal (10 μM) and chitosan polymer-Rose Bengal nanoparticles (0.1 & 0.3 mg/mL) at 37° C. for 15 min, protected from ambient light. Subsequently, the excess photosensitizer solutions were removed leaving behind the bound chitosan polymer-Rose Bengal nanoparticles and Rose Bengal. Dark toxicity was evaluated after sensitization period with the two treatment solutions. In case of photodynamic therapy, the sensitized biofilm-bacteria were irradiated using a 540 nm fiber with dosage of 20, 40 and 60 J/cm^2; and fractionated dosage of 10 and 20 J/cm^2 twice. After treatment, the biofilms were washed gently and 1 mL of sterile deionized-water was added. […] Colonies were counted after 24 hours of incubation at 37° C. and expressed as log colony forming units (CFU) per mL. The experiments were carried out in triplicates and the mean values were calculated.

[6] = test system: E. faecalis biofilm; experiment: Biofilm structure by confocal laser scanning microscopy; assay type: cell-based, E. faecalis (ATCC 29212)
Method: The structure of the 7-days old biofilm following treatment with nanoparticulates was assessed using confocal-laser-scanning-microscopy (CLSM). E. faecalis (ATCC 29212) biofilm was grown on a glass bottom culture dishes. Following treatment with Rose Bengal (10 μM) and chitosan polymer-Rose Bengal nanoparticles (0.3 mg/mL) the as mentioned above, biofilms were washed with 1 mL of sterile deionized-water. The biofilms were then stained with 200 μL, of Live/Dead® Baclight™ stain (Molecular Probes, Eugene, Oreg.) and incubated in the dark for 10 minutes. The biofilm-structures were then viewed under spinning disk confocal-laser-scanning microscopy (Olympus, Japan). Kr/Ar laser was the source of illumination with 488 nm excitation and long-pass 500-523 nm and 622-722 nm emission filter settings for green and red signals respectively. Nine different areas were imaged from each sample using a 60× oil objective. The optical sections of the biofilm-structure were first recorded then subsequently analyzed using Velocity® software. Student t-test was used to compare the thickness of the biofilm before and after nanoparticulates treatment.

Structure (SMILES)	Biofilm E. faecalis photosensitizer uptake/mL of cells ([1]; photosensitizer 10 μM) [µM]	Biofilm E. faecalis photosensitizer uptake/mL of cells ([1]; photosensitizer 25 μM) [µM]	Biofilm E. faecalis photosensitizer uptake/mL of cells ([1]; photosensitizer 50 μM) [µM]	Biofilm E. faecalis photosensitizer uptake/mL of cells ([1]; photosensitizer 100 μM) [µM]	cell survival after photodynamic therapy ([2]; NIH 3T3, 540 nm, 20 J/cm^2)	dark toxicity ([2]; NIH 3T3, 15 min exposure, no irradiation)	release of cell constituents (absorbance at 260 nm) [3]	light dose giving complete planktonic bacterial killing [4] [J/cm^2]	elimination of biofilm bacteria ([5]; fractionated photodynamic therapy, CSRBnp 0.3 mg/mL, Rose Bengal 10 μM)	killing of biofilm-bacteria ([5]; photodynamic therapy at 60 J/cm^2)	biofilm architecture ([6]; after PD treatment (irradiation))	thickness of the biofilm ([6]; after PD treatment, Rose Bengal 10 μM, CSRBnp 0.3 mg/mL, untreated 39.2±7.3) [µm]
CN(C)c1ccc2nc3ccc(=[N+](C)C)cc-3sc2c1 [MB, methylene blue]	0.96 ± 0.07	1.75 ± 0.21	3.15 ± 0.16	5.07 ± 0.19	–	–	–	–	–	–	–	–
O=C1OC2(c3cc(I)c(O)c(I)c3Oc3c2cc(I)c(O)c3I)c2c(Cl)c(Cl)c(Cl)c(Cl)c21 [RB, Rose Bengal]	2.72 ± 0.15	2.80 ± 0.09	3.01 ± 0.11	3.68 ± 0.17	further reduction of cell survival	higher dark toxicity	increased absorbance at 260 nm	5	not with Rose Bengal	did not show complete killing	not disrupted	21.5 ± 9.57
